Laboratory results: patent US11059778B2, “Cannabinoid receptor CB2 ligand 4-(aminomethyl)-N, N-dialkylanilines” (UNIVERSITY OF PITTSBURGH—OF THE COMMONWEALTH SYSTEM OF …, priority 2015, dated 2021)

How the values were obtained:
human CB2 receptors = biological target: T1, human CB2 receptors (Homo sapiens, UniProt P34972); test: [3H]CP-55,940 radioligand competition binding assay, CB2; details: for Ki: CHO cell membranes, [3H]CP-55,940 displacement
T1 construct: expressed in transfected cells
Experimental: (§1) Binding assay. The bioassay is carried out using the Perkin Elmer 96-well Top Counter. This bioassay is also known as a competition binding assay and the biological evaluation is to determine the CB receptor binding affinity (Ki) of the screened ligands by displacing [^3H]-CP-55940 (or other radioligands). The brief procedure is given below.
(§2) Perkin Elmer 96-well TopCounter is used at PMLSC and in our laboratory to determine the CB receptor binding affinity (Ki) of the in-silico screened ligands by displacing [^3H]-CP-55,940 (or other radioligands). In competition binding experiments, the tested compound dilutions are carried out in triplicate in TME buffer (25 mM Tris, 5 mM MgCl2, 1 mM EDTA) containing 0.1% (w/v) fatty acid free bovine serum albumin (BSA), pH 7.4. Various concentrations of the tested compound are added in the same volume to 0.5 nM [^3H]CP-55,940. TME buffer and cell membrane preparations expressing CB receptors (2.5 μg per well) are added to a final volume of 200 μL. For the saturation binding experiments, varying concentrations of [^3H]CP-55,940 (0.05-1.5 nM) with or without 2 μM of unlabeled ligands (CP-55,940 or WIN-55,212-2) are incubated with the receptor membrane preparations to determine Kd and nonspecific binding. After the binding suspensions are incubated at 30° C. for 1 hr, the reaction is terminated by rapid filtration through microfiltration plates coated with 0.5% polyethylenimine (Unifilter GF/B filterplate, PerkinElmer) followed by 5 washes with ice cold TME buffer containing 0.5% BSA on a Packard Filtermate Harvester (PerkinElmer). The plates are then dried overnight and 30 μl MicroScint 0 scintillation cocktail are added to each well of the dried filter plates. Then the bound radioactivity is counted using a Perkin Elmer 96-well TopCounter. The Ki is calculated by using nonlinear regression analysis (Prism 5; GraphPad Software Inc., San Diego, Calif.), with the Kd values for [^3H]CP-55,940 determined from saturation binding experiments. This assay is used for determining binding affinity parameters (Ki) of ligand-receptor interactions for the CB receptor.
(§3) The affinities of the synthesized ligands were determined in radioligand binding studies at human CB1 and CB2 receptors using [3H](—)-cis-3-[2-hydroxy-4-(1,1 dimethylheptyl)phenyl]-trans-4-(3-hydroxypropyl) cyclohexanol (CP55,940) as a CB receptor radioligand. As a source for human CB1 and CB2 receptors, membrane preparations of Chinese hamster ovary (CHO) cells stably expressing the respective receptor subtype were utilized (50 μg of protein/vial). CB2 selective ligand SR144528 (CB2 inverse agonist) and CB1 ligand SR141716 (CB1 inverse agonist) were used as positive controls, respectively, along with the tested compounds in bioassays experiments. Only compounds with high CB2 receptor binding potency was chosen to carry out the CB1 binding assay. CB ligand competition binding assay was carried out as described previously in Gertsch, J., et al., Beta-caryophyllene is a dietary cannabinoid. Proc Natl Acad Sci USA 2008, 105 (26), 9099-104. Briefly, non-radioactive (or cold) ligands (synthesized derivatives and reference ligands) were diluted in a binding buffer (50 mM Tris-HCl (pH 7.4), 5 mM MgC12, 2.5 mM EGTA, and 0.1% (w/v) fatty acid free BSA), supplemented with 10% dimethyl sulfoxide and 0.4% methyl cellulose. Each assay plate well contained a total of 200 μL of reaction mixture composed of 5 μg of CB1 (or 2.5 μg CB2) membrane protein, labeled [3H]-CP-55,940 ligand at a final concentration of 2.5 nM, and the unlabeled ligand at its varying dilutions as stated above. Plates were incubated at 30° C. for 1 hour with gentle shaking.
(§4) The reaction was terminated by rapid filtration through Unifilter GF/B filter plates using a Unifilter Cell Harvester (PerkinElmer). After the plate was allowed to dry overnight, 30 μL MicroScint-0 cocktail (PerkinElmer) was added to each well, and the radioactivity was counted using a PerkinElmer TopCounter. […]

human CB1 receptors = biological target: T2, human CB1 receptors (Homo sapiens, UniProt P21554); test: [3H]CP-55,940 radioligand competition binding assay, CB1; details: CHO cell membranes, [3H]CP-55,940 displacement
T2 construct: expressed in transfected cells
T2 sequence (P21554 whole entry): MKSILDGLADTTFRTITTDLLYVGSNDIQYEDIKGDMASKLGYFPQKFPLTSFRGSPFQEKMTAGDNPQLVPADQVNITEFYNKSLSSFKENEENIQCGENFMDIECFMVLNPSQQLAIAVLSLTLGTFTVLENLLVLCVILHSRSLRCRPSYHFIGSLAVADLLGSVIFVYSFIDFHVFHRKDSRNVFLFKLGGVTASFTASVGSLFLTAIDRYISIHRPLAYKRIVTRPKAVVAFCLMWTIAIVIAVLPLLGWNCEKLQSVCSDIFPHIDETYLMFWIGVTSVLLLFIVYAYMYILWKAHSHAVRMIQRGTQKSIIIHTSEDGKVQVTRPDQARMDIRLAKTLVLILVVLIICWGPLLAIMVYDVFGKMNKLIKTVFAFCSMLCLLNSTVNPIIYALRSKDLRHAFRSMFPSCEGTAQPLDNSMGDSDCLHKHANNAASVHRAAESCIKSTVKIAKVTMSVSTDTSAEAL
Experimental: as §1, §2, §3, §4

T1 sequence (P34972 whole entry): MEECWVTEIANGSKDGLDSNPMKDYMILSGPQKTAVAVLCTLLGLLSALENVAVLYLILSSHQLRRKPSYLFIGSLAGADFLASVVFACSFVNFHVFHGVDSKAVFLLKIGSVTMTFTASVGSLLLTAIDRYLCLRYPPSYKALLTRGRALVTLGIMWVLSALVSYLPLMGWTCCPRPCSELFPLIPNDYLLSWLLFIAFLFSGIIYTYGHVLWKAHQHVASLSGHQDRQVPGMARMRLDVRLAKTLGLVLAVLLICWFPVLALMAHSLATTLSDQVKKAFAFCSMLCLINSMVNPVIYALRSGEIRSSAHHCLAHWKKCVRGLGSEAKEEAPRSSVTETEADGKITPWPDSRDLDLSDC

SI: selectivity index for CB2, calculated as Ki(CB1)/Ki(CB2) ratio (human CB2 receptors)	Ki (human CB2 receptors)	Ki (human CB1 receptors)	Ki (CB1) (human CB1 receptors)	Compound
3	381 nM	1160 nM		CCN(CC)c1ccc(CN(Cc2ccc3c(c2)OCO3)S(=O)(=O)/C=C/c2ccccc2)cc1 [Compound 29, (E)-N-(benzo[d][1,3]dioxol-5-ylmethyl)-N-(4-(diethylamino)benzyl)-2-phenylethene-1-sulfonamide]
2	387 nM	774 nM		CCN(CC)c1ccc(CN(Cc2cc(OC)c(OC)c(OC)c2)S(=O)(=O)c2ccc(C)cc2)cc1 [Compound 6, N-(4-(diethylamino)benzyl)-4-methyl-N-(3,4,5-trimethoxybenzyl)benzenesulfonamide]
	230 nM	122 nM		CCN(CC)c1ccc(CN(Cc2cc(OC)c(OC)c(OC)c2)S(=O)(=O)c2ccc(C(C)C)cc2)cc1 [Compound 8, N-(4-(diethylamino)benzyl)-4-isopropyl-N-(3,4,5-trimethoxybenzyl)benzenesulfonamide]
52	249 nM	13000 nM		CCN(CC)c1ccc(CN(Cc2cc(OC)c(OC)c(OC)c2)C(=O)c2cnc3ccccc3n2)cc1 [Compound 12, N-(4-(diethylamino)benzyl)-N-(3,4,5-trimethoxybenzyl)quinoxaline-2-carboxamide]
50	410 nM	> 20000 nM	no CB1 binding affinity	CCN(CC)c1ccc(CN(Cc2cc(OC)c(OC)c(OC)c2)S(=O)(=O)c2ccc(OC)cc2)cc1 [Compound 4, N-(4-(diethylamino)benzyl)-4-methoxy-N-(3,4,5-trimethoxybenzyl)benzenesulfonamide]
21	946 nM	> 20000 nM		CCN(CC)c1ccc(CN(Cc2cccnc2)S(=O)(=O)c2ccc(-c3ccccc3)cc2)cc1 [Compound 25, N-(4-(diethylamino)benzyl)-N-(pyridin-3-ylmethyl)-[1,1′-biphenyl]-4-sulfonamide]
14	866 nM	12000 nM		CCN(CC)c1ccc(CN(Cc2cccnc2)S(=O)(=O)c2ccc3ccccc3c2)cc1 [Compound 24, N-(4-(diethylamino)benzyl)-N-(pyridin-3-ylmethyl)naphthalene-2-sulfonamide]
2	157 nM	180 nM		CCN(CC)c1ccc(CN(Cc2cc(OC)c(OC)c(OC)c2)S(=O)(=O)c2ccccc2C)cc1 [Compound 14, N-(4-(diethylamino)benzyl)-2-methyl-N-(3,4,5-trimethoxybenzyl)benzenesulfonamide]
2	574 nM	727 nM		CCN(CC)c1ccc(CN(Cc2ccc3c(c2)OCO3)C(=O)c2cccs2)cc1 [Compound 32, N-(benzo[d][1,3]dioxol-5-ylmethyl)-N-(4-(diethylamino)benzyl)thiophene-2-carboxamide]
3	657 nM	1790 nM		CCCCCN(Cc1ccc(N(CC)CC)cc1)S(=O)(=O)c1ccc(C=O)cc1 [Compound 38, N-(4-(diethylamino)benzyl)-4-formyl-N-pentylbenzenesulfonamide]
	239 nM	71 nM		CCN(CC)c1ccc(CN(Cc2cc(OC)c(OC)c(OC)c2)S(=O)(=O)c2ccc3ccccc3c2)cc1 [Compound 9, N-(4-(diethylamino)benzyl)-N-(3,4,5-trimethoxybenzyl)naphthalene-2-sulfonamide]

Compound	SI: selectivity index for CB2, calculated as Ki(CB1)/Ki(CB2) ratio (human CB2 receptors)	Ki (human CB2 receptors)	Ki (human CB1 receptors)	Ki (CB1) (human CB1 receptors)
CCN(CC)c1ccc(CN(Cc2cc(OC)c(OC)c(OC)c2)S(=O)(=O)c2cccs2)cc1 [Compound 16, N-(4-(diethylamino)benzyl)-N-(3,4,5-trimethoxybenzyl)thiophene-2-sulfonamide]	32	639 nM	> 20000 nM	
